These are literature values, as cited in publication PMC2660605 (Biochemistry, 2008).

The test system of data set [1] is HIV-1 with IN mutation T66I.
Data set [2] deals with HIV-1 with IN mutation E92Q.
The target of another data set is HIV-1 integrase E92Q (Human immunodeficiency virus type 1 group M subtype B, UniProt P12497, E1239Q). As to conditions: E92Q mutant.

Regarding `COc1cc2c(cc1Cc1cccc(Cl)c1F)c(=O)c(C(=O)O)cn2[C@H](CO)C(C)C` [Elvitegravir, elvitegravir], the reduced susceptibility in data set [1] is 37 fold; in data set [2] it was 36 fold. The resistance level on HIV-1 integrase E92Q was 4.3 fold.
